Data published in patent publication US7410986B2, “4-6-diphenyl pyridine derivatives as antiinflammatory agents” (Bayer Aktiengesellschaft, priority 2000, dated 2008).
Structures can show the parent of a compound that is named as a salt.

Columns and labels:
[1] = tested on: RANTES production in response to TNF-α from A549 cells; experiment: RANTES production in response to TNF-α from A549 cells; format: cell-based, human; details: Homo sapiens, A549, 24 h, 100 ng/ml TNF-α, compounds of about 40 to 90% purity, read-out: Cellular activity grade (A549, IC50)
human IKK-β = biological target: T1, human IKK-β (Homo sapiens, UniProt O14920); experiment: IKK-β kinase inhibitory assay; format: biochemical; details: compounds of about 40 to 90% purity, read-out: In vitro activity grade (invitro, IC50)
T1 construct: A cDNA fragment encoding human IKK-β open reading frame was generated by PCR; His; made in house; host or cells: Sf21 insect cells (baculovirus); the GST-IκBα substrate was made in E. coli
T1 sequence (O14920 1-756): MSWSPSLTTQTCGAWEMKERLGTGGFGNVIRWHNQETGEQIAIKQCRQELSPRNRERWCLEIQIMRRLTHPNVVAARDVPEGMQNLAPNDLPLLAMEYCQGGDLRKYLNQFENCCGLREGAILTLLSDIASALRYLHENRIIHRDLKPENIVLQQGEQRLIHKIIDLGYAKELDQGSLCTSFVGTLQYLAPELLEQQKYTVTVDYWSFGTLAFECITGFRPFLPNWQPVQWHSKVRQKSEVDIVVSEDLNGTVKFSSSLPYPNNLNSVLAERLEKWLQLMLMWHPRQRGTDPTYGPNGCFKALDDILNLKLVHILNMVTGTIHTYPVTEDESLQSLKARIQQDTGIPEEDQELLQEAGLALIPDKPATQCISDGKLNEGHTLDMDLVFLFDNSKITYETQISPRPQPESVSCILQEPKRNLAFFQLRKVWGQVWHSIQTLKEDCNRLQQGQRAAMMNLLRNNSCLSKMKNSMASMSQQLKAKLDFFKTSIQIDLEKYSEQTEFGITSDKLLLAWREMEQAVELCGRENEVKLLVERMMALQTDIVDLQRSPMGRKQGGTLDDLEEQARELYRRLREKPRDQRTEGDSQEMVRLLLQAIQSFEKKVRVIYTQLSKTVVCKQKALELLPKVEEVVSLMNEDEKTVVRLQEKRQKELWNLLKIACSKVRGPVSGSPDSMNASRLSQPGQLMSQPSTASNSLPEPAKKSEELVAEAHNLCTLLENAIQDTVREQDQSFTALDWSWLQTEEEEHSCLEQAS
In short: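 His-tagged human IKK-β from baculovirus-infected Sf21 cells (final 0.6 μg/ml) with biotinylated GST-IκBα (1-54) (final 0.2 μM) in Tris-HCl pH 7.6/MgCl2 buffer with 2.5% DMSO compound. Reaction started with ATP plus [γ-^33P] ATP, 2 hrs at room temperature; EDTA-stopped, substrate captured on streptavidin plates and bound radioactivity counted by scintillation.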

SMILES | IC50 [1] [nM] | IC50 (human IKK-β) [nM]
N#Cc1c(-c2cccc(N)c2)cc(-c2ccccc2O)nc1N [Example 1-07] | > 10000 | 2000 to 10000
CC(C)C[C@H](N)C(=O)Nc1ccc(F)c(-c2cc(-c3ccccc3O)nc(N)c2C#N)c1 [Example 2-11] | 1000 to 10000 | 500 to 2000
N#Cc1c(-c2cccc(NC(=O)CCN3CCCCC3)c2)cc(-c2ccccc2O)nc1N [Example 2-1, N-{3-[2-amino-3-cyano-6-(2-hydroxyphenyl)-4-pyridinyl]phenyl}-3-(1-piperidinyl)propanamide hydrochloride] | 1000 to 10000 | 500 to 2000
N#Cc1c(-c2cccc(NC(=O)C(O)CCC(=O)O)c2)cc(-c2cc(Cl)ccc2O)nc1N (stereo not drawn) [Example 1-17] | > 10000 | 2000 to 10000
CCN(CCO)c1ccc(-c2cc(-c3ccccc3O)nc(N)c2C#N)cc1NC(=O)CCN [Example 3-05] | 1000 to 10000 | 500 to 2000
CN(C)[C@H]1CCN(c2ccc(-c3cc(-c4ccccc4O)nc(N)c3C#N)cc2NC(=O)CNCC2CC2)C1 [Example 3-14] | 1000 to 10000 | < 500
N#Cc1c(-c2ccc(N3CCOCC3)c(NC(=O)CCN)c2)cc(-c2ccccc2O)nc1N [Example 3-06] | 1000 to 10000 | 500 to 2000

Second part, the compound after the results:

IC50 [1] [nM] | IC50 (human IKK-β) [nM] | SMILES
1000 to 10000 | 500 to 2000 | N#Cc1c(-c2cccc(NC(=O)CNC3CCCC3)c2)cc(-c2ccccc2O)nc1N [Example 4-17]
1000 to 10000 | 500 to 2000 | CN(C)CC(=O)Nc1cccc(-c2cc(-c3ccccc3O)nc(N)c2C#N)c1 [Example 4-22]
1000 to 10000 | 500 to 2000 | CN(C)c1ccc(-c2cc(-c3ccccc3O)nc(N)c2C#N)cc1NC(=O)CNCC1CC1 [Example 4-1, N^1-[5-[2-amino-3-cyano-6-(2-hydroxyphenyl)-4-pyridinyl]-2-(dimethylamino)phenyl]-N^2-(cyclopropylmethyl)glycinamide hydrochloride]
> 10000 | > 10000 | N#Cc1c(-c2ccc(OCC3CC3)c(NC(=O)CN3CCCCC3)c2)cc(-c2ccccc2O)nc1N [Example 4-35]
1000 to 10000 | 500 to 2000 | N#Cc1c(-c2cccc(NC(=O)CCN3CCN(CCO)CC3)c2)cc(-c2ccccc2O)nc1N [Example 4-13]
